The values below come from PubChem BioAssay AID248 (DTP/NCI, 2004).

This test concerns L1210 leukemia ip in BDF1 mice, survival T/C. The test can be described thus: NCI In Vivo Anticancer Drug Screen. Data for tumor model L1210 Leukemia (intraperitoneal) in B6D2F1 (BDF1) mice. The following applies: endpoint: mean survival time, higher = longer survival. Put shortly:
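In this screen, tumor-bearing mice given compound are compared to those given vehicle, and their survival values are reported as a treated-to-control quotient.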

The mark [1] stands for this setting: dose: 100.0 mg/kg/injection, schedule: Q04DX002 (ip), vehicle: saline.
Where [2] appears, read: dose: 200.0 mg/kg/injection, schedule: Q04DX002 (ip), vehicle: saline.
Where [3] appears, read: dose: 100.0 mg/kg/injection, schedule: Q01DX001 (ip), vehicle: saline with Tween-80.
[4] abbreviates: dose: 200.0 mg/kg/injection, schedule: Q01DX001 (ip), vehicle: saline with Tween-80.
Where [5] appears, read: dose: 400.0 mg/kg/injection, schedule: Q01DX001 (ip), vehicle: saline with Tween-80.
[6] abbreviates: dose: 100.0 mg/kg/injection, schedule: Q04DX002 (ip), vehicle: Klucel (hydroxypropylcellulose) (HPC).
Setting [7] is: dose: 200.0 mg/kg/injection, schedule: Q04DX002 (ip), vehicle: Klucel (hydroxypropylcellulose) (HPC).
[8] abbreviates: dose: 400.0 mg/kg/injection, schedule: Q04DX002 (ip), vehicle: Klucel (hydroxypropylcellulose) (HPC).
[9] abbreviates: dose: 100.0 mg/kg/injection, schedule: Q04DX003 (ip), vehicle: Klucel (hydroxypropylcellulose) (HPC).
[10] abbreviates: dose: 200.0 mg/kg/injection, schedule: Q04DX003 (ip), vehicle: Klucel (hydroxypropylcellulose) (HPC).
Where [11] appears, read: dose: 400.0 mg/kg/injection, schedule: Q04DX003 (ip), vehicle: Klucel (hydroxypropylcellulose) (HPC).
[12] abbreviates: dose: 50.0 mg/kg/injection, schedule: Q01DX009 (ip), vehicle: saline with Tween-80.
Setting [13] is: dose: 100.0 mg/kg/injection, schedule: Q01DX009 (ip), vehicle: saline with Tween-80.
The mark [14] stands for this setting: dose: 100.0 mg/kg/injection, schedule: Q04DX003 (ip), vehicle: saline with Tween-80.
Where [15] appears, read: dose: 200.0 mg/kg/injection, schedule: Q04DX003 (ip), vehicle: saline with Tween-80.
Where [16] appears, read: dose: 100.0 mg/kg/injection, schedule: Q01DX009 (ip), vehicle: Klucel (hydroxypropylcellulose) (HPC).
Setting [17] is: dose: 200.0 mg/kg/injection, schedule: Q01DX009 (ip), vehicle: Klucel (hydroxypropylcellulose) (HPC).
[18] abbreviates: dose: 400.0 mg/kg/injection, schedule: Q01DX009 (ip), vehicle: Klucel (hydroxypropylcellulose) (HPC).
Setting [19] is: dose: 100.0 mg/kg/injection, schedule: Q01DX001 (ip), vehicle: saline.
The mark [20] stands for this setting: dose: 200.0 mg/kg/injection, schedule: Q01DX001 (ip), vehicle: saline.
Where [21] appears, read: dose: 400.0 mg/kg/injection, schedule: Q01DX001 (ip), vehicle: saline.

Values joined by “and” are separate entries in the source; they are usually repeats but may differ in a detail not shown here. Identical values can stand only once. Inconclusive results and toxic doses are left out.

For `O=C(O)CCN1C/C(=C\c2ccc(Cl)cc2)C(=O)C1=O`, the T/C is 101 % of control (dose: 100.0 mg/kg/injection, schedule: Q04DX003 (ip), vehicle: saline); 101 % of control (dose: 200.0 mg/kg/injection, schedule: Q04DX003 (ip), vehicle: saline); 101 % of control (dose: 400.0 mg/kg/injection, schedule: Q04DX003 (ip), vehicle: saline).

`COC(=O)C1=NNC(c2ccc(OC)cc2)C1` (stereo not drawn): the T/C is 115 % of control (dose: 100.0 mg/kg/injection, schedule: Q01DX001 (ip), vehicle: steriod suspending solution); 97 % of control (dose: 200.0 mg/kg/injection, schedule: Q01DX001 (ip), vehicle: steriod suspending solution); 103 % of control (dose: 400.0 mg/kg/injection, schedule: Q01DX001 (ip), vehicle: steriod suspending solution).

On to `CC(C)OP(=O)(Cc1ccccc1CBr)OC(C)C`, for which the T/C by setting is: under setting [1], 109 % of control; under setting [2], 102 % of control; (dose: 400.0 mg/kg/injection, schedule: Q04DX002 (ip), vehicle: saline) 109 % of control.

Regarding `CCOCCC(=O)NCc1ccccc1`, the T/C reads like this: under setting [3], 100 % of control; under setting [4], 104 % of control; under setting [5], 106 % of control.

On to `O=C(OCc1ccccc1CN1CCCCC1)c1ccc([N+](=O)[O-])cc1Cl`, for which the T/C by setting is: under setting [6], 98 % of control; under setting [7], 98 % of control; under setting [8], 91 % of control.

On to `O=C1c2ccccc2-c2cccc3ccc(-c4ccccc4)c1c23`, for which the T/C is, setting by setting: (dose: 75.0 mg/kg/injection, schedule: Q01DX009 (ip), vehicle: Klucel (hydroxypropylcellulose) (HPC)) 105 % of control; under setting [9], 96 % of control; (dose: 150.0 mg/kg/injection, schedule: Q01DX009 (ip), vehicle: Klucel (hydroxypropylcellulose) (HPC)) 97 % of control; under setting [10], 96 % of control; (dose: 300.0 mg/kg/injection, schedule: Q01DX009 (ip), vehicle: Klucel (hydroxypropylcellulose) (HPC)) 101 % of control; under setting [11], 100 % of control.

Consider `O=c1cc(C(F)(F)F)[nH]c2ccc(F)cc12`, for which the T/C is 102 % of control (dose: 5.0 mg/kg/injection, schedule: Q04DX003 (ip), vehicle: saline with Tween-80); 90 % of control (dose: 10.0 mg/kg/injection, schedule: Q04DX003 (ip), vehicle: saline with Tween-80); 97 % of control (dose: 20.0 mg/kg/injection, schedule: Q04DX003 (ip), vehicle: saline with Tween-80).

For `c1ccc2c(c1)ccc1oc3ccc4ccccc4c3c12`, the T/C reads like this: (dose: 18.75 mg/kg/injection, schedule: Q04DX003 (ip), vehicle: Klucel (hydroxypropylcellulose) (HPC)) 97 % of control; (dose: 37.5 mg/kg/injection, schedule: Q04DX003 (ip), vehicle: Klucel (hydroxypropylcellulose) (HPC)) 97 % of control and 98 % of control; (dose: 75.0 mg/kg/injection, schedule: Q04DX003 (ip), vehicle: Klucel (hydroxypropylcellulose) (HPC)) 101 % of control and 103 % of control; under setting [9], 103 % of control; (dose: 150.0 mg/kg/injection, schedule: Q04DX003 (ip), vehicle: Klucel (hydroxypropylcellulose) (HPC)) 104 % of control; under setting [10], 97 % of control. Moreover, the T/C under setting [11] is 101 % of control.

Consider `O=C(C[n+]1ccccc1)N/N=C/c1ccc(O)c(O)c1`, for which the T/C was 104 % of control under setting [12]; 106 % of control under setting [13]; 110 % of control under setting [14]; 117 % of control (dose: 200.0 mg/kg/injection, schedule: Q01DX009 (ip), vehicle: saline with Tween-80); 110 % of control under setting [15].

For `CC1(C)C2CCC1(C)C(C(=O)C(F)(F)F)C2=O.CC1(C)C2CCC1(C)C(C(=O)C(F)(F)F)C2=O.[Mn]` (stereo not drawn), the T/C runs as follows: (dose: 50.0 mg/kg/injection, schedule: Q04DX002 (ip), vehicle: saline with Tween-80) 94 % of control; (dose: 100.0 mg/kg/injection, schedule: Q04DX002 (ip), vehicle: saline with Tween-80) 98 % of control; (dose: 200.0 mg/kg/injection, schedule: Q04DX002 (ip), vehicle: saline with Tween-80) 98 % of control.

For `CC(=O)c1ccc(Oc2ccccc2)cc1`, the T/C was 104 % of control under setting [6], 93 % of control under setting [7] and 110 % of control under setting [8].

Turning to `Nc1ccccc1SSc1ccccc1N`, the T/C was 86 % of control under setting [6] and 86 % of control under setting [7].

Turning to `O=C1OC(=O)c2c1ccc(Br)c2Br`, the T/C runs as follows: under setting [16], 102 % of control; under setting [9], 101 % of control; under setting [17], 96 % of control; under setting [10], 98 % of control; under setting [18], 89 % of control; under setting [11], 93 % of control.

For the molecule `NC(=O)c1[nH]cnc1/N=N/N(CCCl)Cc1ccccc1`, the T/C reads like this: (dose: 100.0 mg/kg/injection, schedule: Q01DX001 (ip), vehicle: Klucel (hydroxypropylcellulose) (HPC)) 111 % of control; under setting [16], 255 % of control; under setting [9], 123 % of control; (dose: 133.0 mg/kg/injection, schedule: Q01DX001 (ip), vehicle: Klucel (hydroxypropylcellulose) (HPC)) 120 % of control; under setting [17], 164 % of control; under setting [10], 221 % of control. Also, the T/C is, setting by setting: (dose: 400.0 mg/kg/injection, schedule: Q01DX001 (ip), vehicle: Klucel (hydroxypropylcellulose) (HPC)) 174 % of control and 195 % of control; under setting [18], 117 % of control; under setting [11], 296 % of control.

In the case of `Cn1cnc2cc(N=Cc3ccc(N(CCCl)CCCl)cc3)ccc21`, the T/C was 106 % of control under setting [6], 106 % of control under setting [7] and 109 % of control under setting [8].

`CCOP(=S)(OCC)N1c2ccccc2Sc2ccccc21`: the T/C is 92 % of control under setting [14] and 91 % of control under setting [15].

With `CC(=O)CCCSCCOC(C)=O`, the T/C by setting is: under setting [16], 95 % of control; under setting [17], 101 % of control; under setting [18], 101 % of control.

For the molecule `CN(C)c1ccc(C=Nc2ccccc2O)cc1`, the T/C under setting [19] was 107 % of control, the T/C under setting [20] is 96 % of control and the T/C under setting [21] is 97 % of control.

With `O=c1[nH]c2ccccc2c2ccccc12`, the T/C was 92 % of control under setting [14]; 97 % of control under setting [15]; 95 % of control (dose: 400.0 mg/kg/injection, schedule: Q04DX003 (ip), vehicle: saline with Tween-80).

With `CCCCN(CCCC)CN(CCCC)CCCC`, the T/C is 97 % of control (dose: 25.0 mg/kg/injection, schedule: Q01DX009 (ip), vehicle: saline with Tween-80); 100 % of control under setting [12]; 100 % of control under setting [13]; 95 % of control under setting [1]; 95 % of control under setting [2].

Take `CC1=C(N)/C(=C(/C)C#N)OC1=O`: the T/C by setting is: under setting [3], 92 % of control; under setting [4], 100 % of control; under setting [5], 92 % of control.

For `COC(=O)c1cccc([N+](=O)[O-])c1`, the T/C is, setting by setting: under setting [19], 96 % of control; under setting [20], 94 % of control; under setting [21], 100 % of control.

For `CCCCc1nc2c(c(=O)n(C)c(=O)n2C)n1C`, the T/C (dose: 50.0 mg/kg/injection, schedule: Q01DX001 (ip), vehicle: saline) was 96 % of control; the T/C under setting [19] was 96 % of control; the T/C under setting [20] was 102 % of control.

Take `CC(=O)Nc1ccc(SC(=O)N(C)C)cc1`: the T/C by setting is: (dose: 12.5 mg/kg/injection, schedule: Q01DX009 (ip), vehicle: saline + alcohol) 90 % of control; (dose: 25.0 mg/kg/injection, schedule: Q01DX009 (ip), vehicle: saline + alcohol) 95 % of control; (dose: 25.0 mg/kg/injection, schedule: Q04DX003 (ip), vehicle: saline with Tween-80) 98 % of control; (dose: 50.0 mg/kg/injection, schedule: Q01DX009 (ip), vehicle: saline + alcohol) 101 % of control; (dose: 50.0 mg/kg/injection, schedule: Q04DX003 (ip), vehicle: saline with Tween-80) 104 % of control; under setting [14], 103 % of control.
